≈ marks a conversion by molar mass, not a printed value. Calls of active or inactive are those of the source. The calls are words filed in the database; no cut-off is given here.
Assays:
Micrococcus luteus [1] = experiment: Antibacterial activity against Micrococcus luteus assessed as bacterial growth inhibition by paper disc diffusion assay; type: functional
[2] = tested on: Mycolicibacterium smegmatis; experiment: Antibacterial activity against Mycolicibacterium smegmatis assessed as bacterial growth inhibition by paper disc diffusion assay; type: functional
Staphylococcus aureus [3] = experiment: Antibacterial activity against Staphylococcus aureus assessed as bacterial growth inhibition by paper disc diffusion assay; type: functional
Streptomyces nigrescens = experiment: Antibacterial activity against Streptomyces nigrescens HEK616 assessed as bacterial growth inhibition at 20 nmol by paper disc diffusion assay; type: functional, organism-based
Escherichia coli [4] = experiment: Antibacterial activity against Escherichia coli assessed as bacterial growth inhibition at 20 nmol by paper disc diffusion assay; type: functional, organism-based
Escherichia coli [5] = experiment: Antibacterial activity against Escherichia coli RFM795 harboring lptD gene mutation assessed as bacterial growth inhibition at 20 nmol by paper disc diffusion assay; type: functional, organism-based
Streptomyces sp. [6] = experiment: Antibacterial activity against Streptomyces sp. assessed as bacterial growth inhibition at 20 nmol by paper disc diffusion assay; type: functional, organism-based
Micrococcus luteus [7] = experiment: Antibacterial activity against Micrococcus luteus assessed as bacterial growth inhibition at 20 nmol by paper disc diffusion assay; type: functional, organism-based
[8] = tested on: Mycolicibacterium smegmatis; experiment: Antibacterial activity against Mycolicibacterium smegmatis assessed as bacterial growth inhibition at 20 nmol by paper disc diffusion assay; type: functional, organism-based
[9] = tested on: Mycobacterium tuberculosis; experiment: Antibacterial activity against Mycobacterium tuberculosis H37Rv assessed as bacterial growth inhibition; type: functional
Saccharomyces cerevisiae = experiment: Antifungal activity against Saccharomyces cerevisiae assessed as fungal growth inhibition at 20 nmol by paper disc diffusion assay; type: functional, organism-based
Streptomyces lydicus = experiment: Antibacterial activity against Streptomyces lydicus assessed as bacterial growth inhibition at 20 nmol by paper disc diffusion assay; type: functional, organism-based
Candida albicans = experiment: Antifungal activity against Candida albicans assessed as fungal growth inhibition at 20 nmol by paper disc diffusion assay; type: functional, organism-based
Staphylococcus aureus [10] = experiment: Antibacterial activity against Staphylococcus aureus assessed as bacterial growth inhibition at 20 nmol by paper disc diffusion assay; type: functional, organism-based
Streptomyces sp. [11] = experiment: Antibacterial activity against Streptomyces sp. TP-A0584 assessed as bacterial growth inhibition at 20 nmol by paper disc diffusion assay; type: functional, organism-based

Row | Structure (SMILES) | MIC (Micrococcus luteus [1]) [µM] | MIC [2] [µM] | MIC (Staphylococcus aureus [3]) [µM] | Activity (Streptomyces nigrescens) | Activity (Escherichia coli [4]) | Activity (Escherichia coli [5]) | Activity (Streptomyces sp. [6]) | Activity (Micrococcus luteus [7]) | Activity [8] | MIC [9] [µM] | Activity (Saccharomyces cerevisiae) | Activity (Streptomyces lydicus) | Activity (Candida albicans) | Activity (Staphylococcus aureus [10]) | Activity (Streptomyces sp. [11])
1 | NC[C@H]1O[C@H](O[C@H]2[C@H](O)[C@@H](O[C@H]3O[C@H](CO)[C@@H](O)[C@H](N)[C@H]3O)[C@H](N)C[C@@H]2N)[C@H](O)[C@@H](O)[C@@H]1O [KANAMYCIN] | 12.8 (≈ 6.2 µg/mL) | 1.6 (≈ 0.775 µg/mL) | 0.2 (≈ 0.0969 µg/mL) |  |  |  |  |  |  |  |  |  |  |  | 
2 | C/C=C1/NC(=O)C(NC(=O)CNC(=O)CCCCCCCCCCCCNC(=N)N)CC2(C[S+]([O-])CC(C(=O)O)NC(=O)CNC(=O)CNC2=O)NC(=O)[C@H](C(C)C)NC1=O (stereo not given in full) | 25.6 (≈ 22.6 µg/mL) | 25.6 (≈ 22.6 µg/mL) | 51.2 (≈ 45.2 µg/mL) | inactive | Active | inactive | Active | Active | Active | 0.35 (≈ 0.309 µg/mL) | inactive | inactive | inactive | Active | Active
3 | C/C=C1/NC(=O)C(NC(=O)CNC(=O)CCCCCCCCCCCCNC(=N)N)CC2(C[S+]([O-])CC(C(=O)O)NC(=O)CNC(=O)CNC2=O)NC(=O)[C@H]([C@@H](C)CC)NC1=O (stereo not given in full) | 12.8 (≈ 11.5 µg/mL) | 6.4 (≈ 5.73 µg/mL) | 12.8 (≈ 11.5 µg/mL) | inactive | Active | inactive | Active | Active | Active | 0.35 (≈ 0.314 µg/mL) | inactive | inactive | inactive | Active | Active
4 | C/C=C1/NC(=O)C(NC(=O)CNC(=O)CCCCCCCCCCCCNC(=N)N)CC2(CSCC(C(=O)O)NC(=O)CNC(=O)CNC2=O)NC(=O)[C@H](C(C)C)NC1=O (stereo not given in full) | 102 (≈ 88.7 µg/mL) | 51.2 (≈ 44.3 µg/mL) | 102 (≈ 88.7 µg/mL) | inactive | Active | inactive | Active | Active | Active |  |  | inactive |  | Active | 
5 | C/C=C1/NC(=O)C(NC(=O)CNC(=O)CCCCCCCCCCCCNC(=N)N)CC2(CSCC(C(=O)O)NC(=O)CNC(=O)CNC2=O)NC(=O)[C@H]([C@@H](C)CC)NC1=O (stereo not given in full) | 51.2 (≈ 45.1 µg/mL) | 25.6 (≈ 22.5 µg/mL) | 51.2 (≈ 45.1 µg/mL) | inactive | Active | inactive | Active | Active | Active |  |  | inactive |  | Active | 
